Test results as given in US20250319096A1, “METHODS AND COMPOUNDS FOR TREATING INFLAMMATION” ([…] INCORPERATED, priority 2021, published 2025).
pIC50: −log10 of the molar value. Read-outs that look alike come from different tables or passages of the source.

Assays:
GABAA receptors [1] = details: literature value, ref [37]; read-out: reported IC50 (GABAAR binding); cited from earlier work
GABAA receptors [2] = test: GABAA receptor binding, [3H]-flunitrazepam displacement on rat brain membranes; details: n=6, read-out: GABAAR binding (IC50)
Experimental: Rat brain membranes are prepared from frozen tissue that was thawed on ice, homogenized on ice in 10 volumes of cold lysis buffer (50 mM Tris HCl, pH 7.4, containing protease inhibitor cocktail from Roche) using a Polytron homogenizer (6 pulses and 10 seconds per pulse). The homogenate is centrifuged at 1,000×g for 10 min at 4° C. to obtain supernatant. The supernatant is then centrifuged at 40,000×g for 20 min, and then the resulting supernatant is decanted and replaced with the same ice-cold lysis buffer. Two or three additional rounds of homogenization-centrifugation are performed to ensure thorough homogenization and also to wash out endogenous ligands. The final pellet is resuspended in the same buffer and homogenized one last time. The rat brain suspension is diluted in buffer (50 mM Tris HCl, 2.5 mM CaCl2), pH 7.4), followed by the addition of [3H]-flunitrazepam (0.6-4.0 nM in DMSO) and PI320 or PI310 in DMSO at different concentrations to reach a final of volume of 125 ul per well. GABAAR subtypes that bind flunitrazepam consist of α1-3,5,6β1-3γ1-3/δ GABAARs. Relative expression of GABAARs in the brain consist of 43% α1β2γ2, 15% α2β3γ2+8% α2βγ1, 10% α3β3γ2, 6% α4βγ/δ, 4% α5β3γ2, and 4% α6β2γ2/δ. […]
Total binding and nonspecific binding are determined with reference compound clonazepam. […] Scintillation cocktail is then melted onto the microwave-dried filters on a hot plate and radioactivity counted in a Microbeta counter. The data (n=6) are analyzed by nonlinear regression.
GABAA receptor binding: Rat brain membranes were prepared from frozen tissue that was thawed on ice and homogenized on ice in 10 volumes of cold lysis buffer (50 mM Tris HCl, pH 7.4, containing protease inhibitor cocktail; Roche) using a Polytron homogenizer (6 pulses and 10 seconds per pulse). […] Total binding and nonspecific binding were determined with reference compound clonazepam. […] Scintillation cocktail was then melted onto the microwave-dried filters on a hot plate and radioactivity counted in a Microbeta counter. The data (n=6) were analyzed by nonlinear regression.

[3] = system: C57BL/6 mouse bladder strips with intact mucosa; test: Functional analysis in overactive bladder model, carbachol-contracted bladder strips; set-up: species or system mice; details: 10 uM carbachol, cumulatively increasing concentrations 1-100 uM
Experimental: C57BL/6 female mice (12 weeks, Harlan UK, Ltd) are euthanized by cervical dislocation. The bladder is removed after a midline laparotomy, the neck and trigone region cut away and the dome laid out as a sheet after an anterior wall incision. Strips with intact mucosa (5-7 mm length, 1-2 mm diameter) are dissected and tied in a horizontal trough between a fixed hook and an isometric force transducer. Preparations are superfused (3 ml·min−1) at 36° C. with Tyrode's solution. PI320 or DMSO vehicle are added to the superfusate and their effects on tension measured.
Unstimulated preparations are allowed to equilibrate under tension (20 mN) until a stable base-line is recorded. The preparation is exposed to 10 µM carbachol and peak and steady-state tension recorded. In the continued presence of carbachol the preparation is also exposed to P1320 in cumulatively increasing concentrations (1, 3, 10, […], 100 uM) until a new steady-state is achieved at each concentration. For vehicle controls DMSO is added in rising concentrations (0.01, 0.03, 0.1, 0.3, 1.0% (v/v)) after a steady-state contraction is achieved with carbachol.
Data are mean±SD; differences between multiple data sets were tested with repeated measures two-way ANOVA and Tukey post hoc tests.

[4] = system: mice with INFγ/LPS induced lung inflammation; test: Steroid resistant mouse asthma model (INFγ/LPS), airway hyperresponsiveness sRaw after methacholine; assay type: in vivo; details: for reduction of AHR (sRAW) versus vehicle control: nebulized 7.2 mg/kg, prior to second and third methacholine application, p≤0.005
Experimental: Female A/J mice are purchased from Jackson Laboratory (Bar Harbor, ME) and female Swiss Webster mice are purchased from Charles River Laboratory (Wilmington, MA). Animals are given ad libitum access to food and water. Test drugs are prepared for nebulization as follows: a 3.0 mg/ml solution of albuterol (Millipore Sigma) is prepared in phosphate buffered saline (137 mM NaCl, 2.7 mM KCl, 10 mM Na2HPO4, and 1.8 mM KH2PO4) and PI320 is prepared as 3.2 mg/ml solution in water with 0.17% Tween-20. Airway hyperresponsiveness measurements, sRaw, are obtained using a Buxco FinePointe Non-Invasive Airway Mechanics instrument (DSI, St. Paul, MN) as described previously (ACS Pharmacol Transl Sci 3, 1381-1390).
Efficacy of control drug (albuterol) and PI320 are determined by reduction of sRAW in mice compared to vehicle treated control mice. Here, mouse lung inflammation is induced with INFγ and bacterial lipopolysaccharide (LPS) via intratracheal installation. Elevated levels of IFNγ in the lung are observed for neutrophilic asthma patients, which respond poorly to steroid treatment (Eur Respir J 11, 312-316). One contributing factor is the impaired nuclear translocation of the liganded glucocorticoid receptor in pulmonary macrophages (Am J Respir Crit Care Med 191, 54-62). LPS simulates a microbial infection leading to macrophage-mediated inflammatory response (J Immunol 185, 4401-4409).
The tracheal installation of INFγ/LPS increases airway hyper-responsiveness to an inhaled challenge agent as measured by sRAW, which is based on the breathing volume and frequency. The challenge agent, methacholine, is administered three times over 24 minutes resulting in sRAW of approximately 8.0 cmH2O*sec.

[5] = system: Swiss Webster mice, MC903 challenge; test: MC903 mouse AD model, ear thickness; assay type: in vivo; details: 2 nmol topically on both ears, third week after MC903, p≤0.05 / p≤0.01
Text: An established mouse model of AD is used to evaluate the efficacy of PI320 in reducing ear thickness following MC903 challenge (for background on the model see: J Invest Dermatol 138, 2606-2616 [28]; Proc Natl Acad Sci USA, 103, 11736-11741 [29]; Sci Transl Med, 5, 170ra116 [30]; J Invest Dermatol, 138, 1555-1563 [31]). Ear thickness is used as a measure of inflammation caused by the chemical irritant.
Briefly, commercially sourced female Swiss Webster mice (Charles River Laboratory, Wilmington, MA) at approximately seven weeks of age are used. Sixteen mice are housed under 7:00 AM-7:00 PM 12 h light cycle and administered 2 nmol MC903 on each ear on Monday, Wednesday and Friday for two weeks. The ear thickness increased from 0.3 mm to 0.7 mm during that time. During the third week, a group of eight mice were administered 2 nmol of PI320 topically on both ears (10 ul of a 100 uM solution in ethanol on each side of both ears). The control group received vehicle ethanol. Ear thickness is measured using calipers. […] See, FIG. 4.

[6] = system: colon MPO activity (Myeloperoxidase); test: MPO assay on whole colon homogenates of DSS mice; assay type: in vivo; details: 100 mg/kg daily in peanut butter, 3% DSS water
Experimental: (§1) Ten (10) week old female Swiss Webster mice were offered 3% Dextran sodium sulfate (DSS) water to induce ulcerative colitis. Group 1 (n=8) received daily peanut butter (200 mg) and group 2 (n=8) received 100 mg/kg PI320 in peanut butter. The animals were weighted daily. See, FIGS. 1A and 1B.
MPO assay: Whole colons were homogenized in phosphate buffer and centrifuge at 10,000 rpm at 4° C. from 10 min. The protein concentration supernatant was determined with a BCA assay and adjusted to 200 μg/ml with the addition of phosphate buffer. A daily standard solution for the hydrogen peroxide solution was prepared to a concentration of 0.0024% from a 35% v/v stock. The phosphate buffer that was prepared for the BCA assay was utilized for the dilution step of this assay. O-dianisidine dihydrogen chloride was prepared at a concentration of 167 μg/mL in phosphate buffer and sonicated for 30 min to dissolve in the buffer. 8 µL of protein solution was transferred to a 384 well plate containing 62 μL of the o-dianisidine solution. The reaction is initiated with the addition of 10 μL of the hydrogen peroxide solution prepared above. […] The product of this reaction shifts the absorbance to the λmax to 460 nm. The plate is then measured over a 15 min period in the plate reader in 30 sec intervals. […]

[7] = system: Swiss Webster mice with 3% Dextran sodium sulfate (DSS) induced ulcerative colitis; test: Inflammatory bowel disease model, 3% DSS induced ulcerative colitis, bodyweight; assay type: in vivo; details: 100 mg/kg daily in peanut butter, 3% DSS water
Experimental: as §1

For `C[C@H]1N=C(c2ccccc2F)c2cc(Br)ccc2-n2cnc(C(=O)O)c21` [MIDD0301, (R)-8-bromo-6-(2-fluorophenyl)-4-methyl-4H-benzo[f]imidazo[1,5-a][1,4]diazepine-3-carboxylic acid], the pIC50 (GABAA receptors [1]) is given as 7.14.
In the case of `COCCOCCOCCOCCOCCNC(=O)c1ncn2c1[C@@H](C)N=C(c1ccccc1F)c1cc(Br)ccc1-2` [PI320, (R)-8-bromo-6-(2-fluorophenyl)-N-(2,5,8,11,14-pentaoxahexadecan-16-yl)-4-methyl-4H-benzo[f]imidazo[1,5-a][1,4]diazepine-3-carboxamide], the pIC50 (GABAA receptors [2]) was 6.62, the “contraction force of bladder strips versus DMSO controls” value [3] was “concentration-dependent reduction of force” and the “reduction of methacholine induced airway hyper-responsiveness compared with albuterol” value ([4]; administered via inhalation) was “at least as effective as albuterol”. For the same compound, the “reduction of AHR (sRAW) versus vehicle control” value [4] was “statistically significant reductions”, the “ear thickness versus vehicle control” value [5] was “significantly reduces ear thickness” and the “colon Myeloperoxidase (MPO) level versus vehicle group” value [6] was “greatly reduced”. The “change of bodyweight in comparison to the initial weight” value ([7]; days 6 and 7) was “small drop in weight” and the change of bodyweight ([7]; from day 2) was “regained weight on day 2”.
For `COCCOCCNC(=O)C1N=CN2C3=C(CC(Br)C=C3)C(c3ccccc3F)=N[C@H](C)C12` (stereo partly drawn) [PI350], the pIC50 (GABAA receptors [2]) was 7.24.
`COCCOCCOCCOCCNC(=O)C1N=CN2C3=C(CC(Br)C=C3)C(c3ccccc3F)=N[C@H](C)C12` (stereo partly drawn) [PI352] showed a pIC50 (GABAA receptors [2]) of 7.42.
For `CC(C)(C)NCC(O)c1ccc(O)c(CO)c1` (stereo not drawn) [albuterol, reference compound], the “reduction of AHR (sRAW) versus vehicle control” value [4] was “statistically significant reductions”.
